Source: patent publication US9435738B2, “System and device for characterizing cells” (The Johns Hopkins University, priority 2011, dated 2016)

System: Mouse myoblasts (c2c12)
Experiment: microscopy-based assay measuring cell cycle phase and cell/nuclear properties simultaneously in the same cells
Details: for cell cycle phase enriched / blocked by treatment: cell-cycle distribution vs control cells; for contribution to changes in nuclear size due to (uncontrolled) intrinsic changes in nuclear size in each phase / contribution to changes in nuclear size due to forced cell-cycle redistribution: population-averaged nuclear size, Eq. 2, FIG. 36 B; for time after release at which asynchronized (untreated) cell cycle distribution is recovered: release from synchronizing drug
Method: For each type of cell, ˜10,000 cells were plated on a glass bottom dish (World Precision Instruments, Sarasota, Fla.). After incubation for 48 h, the treatment for synchronization was applied. To serum-starve cells, cells were washed three times with Hanks' balanced salt solution (HBSS) (GBICO) and cultured in serum-free medium for 72 h. For synchronization at early S phase, cells were treated with 2 mM of thymidine for 18 h twice. Between these two treatments, cells were rinsed with HBSS three times and cultured in normal growth medium to release cell cycle for 9 h. To synchronize cells in the M phase, cells were first treated with 2 mM of thymidine for 24 h. Followed by rinsing with HBSS three times, cells were released with normal growth medium for 3 h. After the short release, cells were treated with 100 ng/ml of microtubule-depolymerizing drug nocodazole for 12 h.
Cells were fixed with 3.7% of formaldehyde (Sigma) for 15 min at room temperature (RT). After fixation, cells were permeabilized with 0.1% Triton X-100 (Sigma) for 10 min and blocked for nonspecific binding with phosphate-buffered saline (PBS) supplemented with 10% of goat serum for 30 min. Cells were incubated with specific concentration of dye diluted from stock solution for 1 h. Nuclear DNA was stained with Hoechst 33342 (Sigma) at 1:40 dilution, Cytoplasm was stained with HCS CellMask Cy5 (Invitrogen) at 1:20000 dilution. Actin was stained with Phalloidin 488 (Invitrogen) at 1:40 dilution. PBS rinse was conducted three times between each step.
Fluorescent images were collected with a Nikon DS-QiMc camera installed on a customized Nikon TE300 microscope with a 10× Plan Fluor lens (N.A. 0.3, Nikon Melville, N.Y.), a motorized stage, and motorized excitation and emission filters (Prior Scientific, Rockland, Mass.) controlled by Nikon NIS Elements. Eighty-one (9-by-9 grid) fields of views were consistently generated using the software Nikon NIS-Elements. The size of the image acquired from the camera was 1280×1024 pixels, and the pixel size was 0.57 μm for a 10× objective. Our ΔX and ΔY for image capture was 662 μm and 520 μm respectively to allow 10% overlay between adjacent fields. The total size of the scanning region (81 images) was ˜28.5 mm^2. Four different channels (UV, GFP, Cy5, and phase contrast) were collected for every field of view. The calibration glass-bottom dish contained dyes for three different fluorescent channels, UV, GFP, and Cy5. For each fluorescence channel, UV, GFP, and Cy5, two calibration images were acquired: with and without illumination. The calibration images were used to reduce the non-uniform illumination of fluorescent images. All of the phenotypic information was calculated with a custom high throughput program (written in Matlab) developed in our laboratory. Typically >1,000 cells were analyzed per different biological repeat (i.e. different cells) for a total >3,000 cells for each tested condition.
To precisely segment individual cells and nuclei, we used slightly different approaches based on the same principle. For nuclear segmentation, because of the relatively circular shape and relatively even intensity of the Hoechst stain, we filtered calibrated images (as described in the previous section) with a 23×23 pixel normalized Gaussian filter (similar scale as the size of nuclei) and an averaging filter (same size) to obtain IG (Gaussian intensity) and IM (averaged intensity). Subtracting IM from IG gives IN, the nuclear intensity values without regional background.
Because cells are larger than their nuclei, a larger size of filters was needed. However, one major limitation with spatial domain image filters is non-continuous edges. Increasing the size of the filter increases the size of this “non-trustable” region. The use of a spatial filter 2r+1 in size will lead to the loss of r+1 pixels from the edge because of incomplete information, which greatly reduces the usable image size. […]

Row | SMILES | decrease in nuclear size of cells in the G0/G1 phase (10 nM for 24 h, G0/G1 phase, P<0.0001) [%] | decrease in population-averaged cell size / nuclear size (10 nM for 24 h, population-averaged, accompanied by rounding of the nucleus) [%] | time after release during which cell properties continued to be affected (after removing inhibitor) | cell cycle phase enriched / blocked by treatment | increase in mean cell size in the G2/M phase compared to untreated (asynchronized) cells in the same phase [%] | change in measured cell properties caused by synchronization (compared phase-to-phase to control cells) [%] | contribution to changes in nuclear size due to (uncontrolled) intrinsic changes in nuclear size in each phase [%] | contribution to changes in nuclear size due to forced cell-cycle redistribution [%] | time after release at which asynchronized (untreated) cell cycle distribution is recovered [h] | increase in mean size of cells in the G0/G1 phase compared to untreated (asynchronized) cells in the same phase (G0/G1 phase) [%] | mean size of treated cells in the S phase relative to mean size of untreated cells in the S phase (S phase) [times] | increase in mean size of cells in the S phase compared to untreated cells in the same phase (S phase, after forced synchronization) [%]
1 | CCNc1cc(N[C@H]2CC[C@H](O)CC2)nc(Nc2ccc3c(ccn3Cc3ccccc3)c2)n1 [Cdk4/6 inhibitor IV, trans-4-((6-(ethylamino)-2-((1-(phenylmethyl)-1H-indol-5-yl)amino)-4-pyrimidinyl)amino)-cyclohexanol] | > 50 | ~50 | up to 6 h | blocked cells in the G0/G1 phase | – | – | – | – | – | – | – | –
2 | COC(=O)Nc1nc2ccc(C(=O)c3cccs3)cc2[nH]1 [nocodazole] | – | – | – | M phase | 75 | > 30 | 41 | 35 | 24 | – | – | –
3 | Cc1cn([C@H]2C[C@H](O)[C@@H](CO)O2)c(=O)[nH]c1=O [thymidine] | – | – | – | S phase | 220 | – | 91 | 9 | 24 | 130 | 2.2 | 120
